“Also recorded” adds a separate entry of the source.
Tests used:
PKCζ = PKCζ translocation in ETFR cells (confocal microscopy); type: cell-based, rat; conditions: 100 nM fMLF, 10 μg/ml CaG or PMA 500 nM, 37° C. 10 min
Method: (§1) ETFR cells were seeded on coverslips and cultured overnight in DMEM containing 1% FCS at 37° C. After further culture in FCS-free DMEM for 3 h, cells were treated with stimulants for indicated time periods at 37° C. and were then fixed in 4% paraformaldehyde for 5 min at room temperature. The cells were permeabilized with 0.2% Tween 20 for 30 min at 4° C. and the reaction was blocked with 5% goat normal serum for 15 min at room temperature. The rabbit anti-PKCα/β, δ, and ξ, antibodies (1:1000 in DPBS) were applied separately for 1 h at room temperature. After three rinses with DPBS, the cells were stained with FITC-labeled goat anti-rabbit secondary antibody (PharMingen, 1:1000 in DPBS) for 1 h at room temperature. The coverslips were mounted with an anti-fade, water-based mounting medium with Propidium Iodide (PI) (Vector Lab, Burlingamem, Calif.) and analyzed under a laser scanning confocal fluorescence microscope (Zeiss LSM510 NLO Meta, Jena, Germany). Excitation wavelengths 488 (for FITC) and 568 (for PI) nm were used to generate fluorescence emission in green and red, respectively.

FPR [1] = target: T1, FPR (Homo sapiens, UniProt P21462); assay: Chemotaxis of HEK293 cells transfected with FPR; type: cell-based; conditions: chemotaxis index
T1 construct: expressed in transfected cells; host or cells: Rat basophilic leukemia (RBL) cells, stably transfected (ETFR cells); gift of H. Ali and R. Snyderman, Duke University
T1 sequence (P21462 1-350): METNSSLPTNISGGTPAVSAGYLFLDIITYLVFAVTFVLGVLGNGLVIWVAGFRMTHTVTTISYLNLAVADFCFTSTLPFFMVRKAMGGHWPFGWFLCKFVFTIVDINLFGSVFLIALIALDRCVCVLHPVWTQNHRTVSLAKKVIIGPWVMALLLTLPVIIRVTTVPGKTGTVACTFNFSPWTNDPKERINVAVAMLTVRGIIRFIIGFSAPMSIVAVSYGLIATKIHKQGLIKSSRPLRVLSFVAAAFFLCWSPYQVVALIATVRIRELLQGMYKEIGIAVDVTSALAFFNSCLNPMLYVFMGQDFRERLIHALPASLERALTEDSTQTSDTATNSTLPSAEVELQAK
Method: (§2) Human PBMC were isolated from leukopacks obtained through the courtesy of Transfusion Medicine Department, National Institutes of Health Clinical Center (Bethesda, Md.) by Ficoll-Hypaque density gradient centrifugation. Monocytes were purified from human PBMC by Percoll gradient to yield>90% pure preparations. […] H. Ali and R. Snyderman, Duke University (Durham, N.C.) and maintained in the presence of 0.8 mg/ml geneticin (G418, Life Technologies, Rockville, Md.) in DMEM supplemented with 10% FCS. B. Chemotaxis assay Migration of phagocytes and ETFR cells was assessed using a 48-well microchemotaxis chamber (Neuroprobe, Cabin John, Md.) as previously described (Hu et al. (2001) J Leukoc Biol 70 15512). […] After incubation at 37° C. in humidified air with 5% CO2 (60 min for neutrophils, 90 min for monocytes, 4.5 h for ETFR cells), the filter was removed and stained, and the cells migrating across the filter were counted with light microscopy. […]
(§3) The chimeric receptor was stably transfected into HEK293 cells (a human embryo kidney cell line) and the chemotactic activity of CaG on the transfected cells was measured and compared to the chemotactic activity of CaG on […] cells transfected with wild type FPR, using the assay for chemotaxis described in Example IB. […]

PKC isozymes = assay: PKC translocation in parental RBL cells; type: cell-based, rat; conditions: 100 nM fMLF, 10 μg/ml CaG or PMA 500 nM, 37° C. 10 min
FPR [2] = target: T1, FPR; assay: FPR cell surface expression (FACS), ETFR cells and monocytes; type: cell-based; conditions: 5 μg/ml CaG or 1 μM fMLF, 37° C. 30 min
Method: Cell surface expression of FPR was monitored by a flow cytometer (FACS). Monocytes and ETFR cells (1×10^6 cells/sample) were pretreated with medium or stimulants at 37° C. for 30 minutes. After two washes with cold FACS buffer (DPBS, 1% FCS, 0.02% sodium azide, and 5 mM EDTA, pH7.4), the cells were blocked with 5% normal rat serum followed by incubation with a monoclonal anti-human FPR antibody or isotype matched IgG on ice for 30 min. After three washes with FACS buffer, FITC-labeled rat anti-mouse antibody (PharMingen) was applied and incubated on ice for 30 min. The cells were then washed twice with FACS buffer and analyzed immediately by flow cytometry (Becton Dickinson, San Jose, Calif.).

neutrophils = assay: Calcium flux (Fura-2), neutrophils; type: cell-based, human
PKCα/β = PKCα/β translocation in ETFR cells; type: cell-based, rat; conditions: 100 nM fMLF, 10 μg/ml CaG or PMA 500 nM, 37° C. 10 min
Method: as §1

CHI-39 = assay: Chemotaxis of HEK293 cells transfected with chimeric receptor CHI-39; type: cell-based, human; conditions: N-terminus of FPR replaced by FPRL1 sequences
Method: as §2, §3

Substance: CaG: Cathepsin G, serine protease purified from neutrophil granules, purchased from Athens Research & Technology
- translocation of PKCζ (PKCζ): a substantial proportion of PKCξ translocated to the cell membrane region
- chemotactic activity on FPR-transfected HEK293 cells (FPR [1]): chemotacic for FPR-transfected HEK 293 cells
- PKC translocation in parental RBL cells (PKC isozymes): Neither CaG nor fMLF stimulated PKC translocation in parental RBL cells
- down-regulation of FPR from the cell surface (FPR [2]): weaker, but significant ability of CaG to down-regulate FPR
- Ca2+ flux (neutrophils; CaG 10 μg/ml): failed to induce significant Ca^2+ flux
- attenuation of Ca2+ response to fMLF (neutrophils; CaG 10 μg/ml, 0.1 nM fMLF): attenuated cell response induced by low concentrations of fMLF; also recorded: significantly attenuated cell response to 0.1 nM fMLF
- Ca2+ mobilizing activity (neutrophils; concentrations up to 20 μg/ml (800 nM)): lacked significant Ca^2+ mobilizing activity
- translocation of PKCα/β (PKCα/β): did not induce translocation of PKCα and β
- chemotactic activity on CHI-39-transfected HEK293 cells (CHI-39): exhibit robust migration in response to CaG

From patent US20060008891A1, “Cathepsin G-related peptides as modulators of formylpeptide receptors (FPR)” (The Government of USA as repersented by the Secretary, …, priority 2004, published 2006)
